How the values were obtained:
Format in all cases: binding
GEO1900 [1] = target: T1, GEO1900 (Geoglobus acetivorans, UniProt A0A0A7GJ30); assay: X-ray crystal structure, […] Å; conditions: covalent internal aldimine with Lys152
T1 construct: gene ilvE; mainly homodimer in solution, hexamer in crystal; catalytic Lys152

AF0933 [2] = target: T2, AF0933 (Archaeoglobus fulgidus, UniProt O29329); assay: X-ray crystal structure, […] Å; conditions: covalent internal aldimine with Lys150
T2 construct: gene ilvE; His-tagged (pLATE51, E. coli Rosetta (DE3)-pLysS); homohexamer in solution; catalytic Lys150
T2 sequence (O29329 1-290): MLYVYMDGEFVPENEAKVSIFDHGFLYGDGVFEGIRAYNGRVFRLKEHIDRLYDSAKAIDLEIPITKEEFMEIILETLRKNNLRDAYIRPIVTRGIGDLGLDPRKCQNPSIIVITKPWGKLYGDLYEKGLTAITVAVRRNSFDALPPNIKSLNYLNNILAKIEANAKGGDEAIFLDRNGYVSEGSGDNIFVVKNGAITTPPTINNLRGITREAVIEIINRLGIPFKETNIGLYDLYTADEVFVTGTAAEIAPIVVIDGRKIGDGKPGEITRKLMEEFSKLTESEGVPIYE

AF0933 [3] = target: T2, AF0933; assay: X-ray crystal structure, […] Å, co-crystallization; conditions: 5 mM gabaculine; covalent adduct with PLP, irreversible; partial occupancy, absent in subunit F
GEO1900 [4] = target: T1, GEO1900; assay: X-ray crystal structure, […] Å, soak; conditions: 50 mM AKG soak; unproductive complex with holoenzyme; active site of subunit A only

T1 sequence (A0A0A7GJ30 entry or part of it): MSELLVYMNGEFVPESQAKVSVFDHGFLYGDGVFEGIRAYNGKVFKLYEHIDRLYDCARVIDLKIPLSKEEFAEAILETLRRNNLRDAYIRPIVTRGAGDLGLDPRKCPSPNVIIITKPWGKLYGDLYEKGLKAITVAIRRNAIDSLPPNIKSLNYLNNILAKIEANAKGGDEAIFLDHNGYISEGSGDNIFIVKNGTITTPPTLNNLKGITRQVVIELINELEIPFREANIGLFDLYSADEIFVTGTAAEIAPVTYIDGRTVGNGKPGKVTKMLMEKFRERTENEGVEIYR

SMILES: Cc1ncc(COP(=O)(O)O)c(C=O)c1O [pyridoxal 5′-phosphate]
- X-ray crystal structure, 1.9 Å (GEO1900 [1]): A PLP molecule is covalently bound to the catalytic Lys152 in the GEO1900 active site
- X-ray crystal structure, 2.1 Å (AF0933 [2]): A PLP molecule is covalently bound to the catalytic Lys152 in the GEO1900 active site (Lys150

SMILES: N[C@@H]1C=CC=C(C(=O)O)C1 [gabaculine]
- X-ray crystal structure, 2.0 Å, co-crystallization (AF0933 [3]): AF0933 complexed with gabaculine 5MR0

SMILES: O=C(O)CCC(=O)C(=O)O [α-ketoglutarate]
- X-ray crystal structure, 2.2 Å, soak (GEO1900 [4]): GEO1900 complexed with AKG 5E25

Source: publication PMC6353796, “Thermostable Branched-Chain Amino Acid Transaminases From the Archaea Geoglobus acetivorans and Archaeoglobus fulgidus: Biochemical and Structural Characterization” (Frontiers in Bioengineering and Biotechnology, 2019)
